Assays:
[1] = target: T1, human recombinant ALDH2 enzyme (Homo sapiens, UniProt P05091); assay: Test Example 1-1: ALDH2 activation effect (acetaldehyde oxidation rate, PicoProbe kit); type: biochemical; conditions: ALDH2 2 μg/mL, 180 min measurement
T1 construct: purchased Abcam ab87415
T1 sequence (P05091 18-517): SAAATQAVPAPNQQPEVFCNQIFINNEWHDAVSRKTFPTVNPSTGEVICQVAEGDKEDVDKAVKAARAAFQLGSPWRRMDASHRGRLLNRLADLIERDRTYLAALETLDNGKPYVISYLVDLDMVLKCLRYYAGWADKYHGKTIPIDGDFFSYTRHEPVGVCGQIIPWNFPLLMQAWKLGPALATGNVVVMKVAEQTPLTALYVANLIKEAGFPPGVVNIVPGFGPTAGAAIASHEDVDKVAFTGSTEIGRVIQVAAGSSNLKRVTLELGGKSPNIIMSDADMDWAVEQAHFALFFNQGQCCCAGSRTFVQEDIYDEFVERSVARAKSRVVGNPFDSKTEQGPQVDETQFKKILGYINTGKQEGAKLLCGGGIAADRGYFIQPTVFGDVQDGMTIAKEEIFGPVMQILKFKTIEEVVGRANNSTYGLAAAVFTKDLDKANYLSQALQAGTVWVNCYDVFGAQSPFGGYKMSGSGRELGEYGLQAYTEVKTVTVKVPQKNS
Procedure: The activation effect of each test compound on the acetaldehyde oxidation rate of ALDH2 was measured with the following method. A test was conducted by using a commercially available PicoProbe™ Aldehyde dehydrogenase Activity Assay Kit (manufactured by BioVision Inc.) with reference to an instruction attached to the product under the following conditions. To each well of a 384-well plate, the following (1) to (3) were sequentially added with a pipette: • (1) 10 μL of solution obtained by dissolving and diluting a human recombinant ALDH2 enzyme (manufactured by Abcam, product number: ab87415) with ALDH assay Buffer (final concentration: 2 μg/mL); • (2) 10 μL of 30 μM or 90 μM test compound solution (with 3% DMSO) prepared by using ALDH assay Buffer; and • (3) 10 μL of Reaction mix composed with ratio of […] of ALDH assay Buffer, 0.6 μL of PicoProbe, 0.3 μL of Substrate Mix, and 1.5 μL of Acetaldehyde.
Before addition of (3), incubation was performed at room temperature for 5 minutes. After addition of (3), fluorescence intensity was measured at room temperature every 2.5 minutes over a period of 180 minutes by using an EnSight (manufactured by PerkinElmer Inc.) to determine the oxidation rate. Wavelengths of 535 nm and 587 nm were used for fluorescence intensities of excitation and emission, respectively.

[2] = Test Example 2: Metabolic stability with mouse hepatic microsomes; type: in vitro ADME; conditions: after 30 minutes, 37° C., NADPH; also: tested at 0.99 µM
Procedure: Metabolic stability in mouse hepatic microsomes was evaluated with the following method.
• (1) Mouse hepatic microsomes: 20 mg/mL • (2) Test compound: 1.1 mM DMSO solution • (3) Potassium phosphate buffer solution: 66.7 mM (pH 7.4) • (4) NADPH solution: 10 mM in potassium phosphate buffer solution • (5) Quenching solution: 0.5% formic acid-acetonitrile solution with warfarin as internal standard substance
Into a propylene tube, 971.5 μL of the potassium phosphate buffer solution and 27.5 μL of the mouse hepatic microsomes were put, and suspended. Thereto, 1 μL of a test compound was added, and 180 μL was taken from this mixture and transferred into another tube. The mixture was preincubated at 37° C. for 5 minutes, and 20 μL of the NADPH solution (for the case with an incubation time of 30 minutes) or 20 μL of the potassium phosphate buffer solution (for the case with an incubation time of 0 minutes) was then added thereto. After incubation, 200 μL of the quenching solution was added to terminate the reaction. Subsequently, centrifugation was performed at 3220×g for 20 minutes, and the concentration of the unchanged form of the test compound in 200 μL of the supernatant was measured with LC-MS/MS. On the basis of the peak area obtained for the unchanged form, the residual rate (%) of the unchanged form was calculated as that for the case with an incubation time of 0 minutes was assumed as 100%.

[3] = Test Example 3: Metabolic stability with human hepatic microsomes; type: in vitro ADME; conditions: human hepatic microsomes 0.1 mg protein/mL, 0.1 μmol/L test compound, after 30 minutes, 37° C.
Procedure: For the compounds of Examples 1 to 9, which had been confirmed to have stability in the mouse hepatic microsome test, metabolic stability with human hepatic microsomes was measured. The specific method is as follows. • (1) Fifty microliter-portions were taken from 0.2 μmol/L test compound diluted with β-NADPH solution. • (2) Fifty microliters of 0.2 mg protein/mL human hepatic microsome solution was added to each (except for a sample with a reaction time of 0 minutes). • (3) Incubation was performed with shaking at 37° C. for 30 minutes (concentration in reaction sample: 0.1 μmol/L test compound, 0.1 mg protein/mL human hepatic microsome) • (4) After incubation, 400 μL of methanol was added to terminate the reaction. • (5) To the sample with a reaction time of 0 minutes, 50 μL of 0.2 mg protein/mL hepatic microsome solution was added. • (6) Each of the samples from (4) and (5) was left to stand at −20° C. for 30 minutes or longer, and then centrifuged at 4° C. and 3,000 rpm for approximately 10 minutes. • (7) The supernatant was subjected to measurement with LC/MS/MS, and, on the basis of the peak area obtained for the unchanged form, the residual rate (%) of the unchanged form was calculated as that for the case with an incubation time of 0 minutes was assumed as 100%.

[4] = tested on: pain induced by carrageenan, C57BL/6J mice; assay: Test Example 5: Suppression effect on pain induced by carrageenan (von Frey escape score); type: in vivo, mouse; conditions: mean ± SE, n=8
Procedure: This experiment was carried out with reference to Science Translational Medicine 6, 251ra118 (2014). Animals used were 7-week-old male C57BL/6J mice (The Jackson Laboratory Japan, Inc.). To induce mechanical allodynia to a sole part, carrageenan was subcutaneously administered to the sole of the left hind limb of each mouse. The escape response against mechanical stimulation 180 minutes after the induction was measured by using a von Frey filament with bending force (0.16 grams) to the sole surface of the left hind limb in the ascending direction. The mouse was stimulated in the vertical direction for 6 seconds until the filament bent, and the escape response of the mouse was rated with three-grade scoring (0: no response or startle response (displacing the foot without ascending), 1: ascending the foot, 2: licking or shaking the foot). Stimulation was performed 10 times, and the total value of 10 scores (escape score) was calculated.
The compound (Example 3) was dissolved in DMSO/PEG400 (volume ratio: 1:1), and 2, 6, or 20 mg/kg (no compound for a Vehicle group) of the compound was subcutaneously administered to the back of the neck three times in total at the same dose: 15 minutes before injection of carrageenan, 30 minutes after injection of carrageenan, and 150 minutes after injection of carrageenan, each at a dose of 5 mL/kg in liquid volume. A 1.5% carrageenan solution was prepared with physiological saline, and subcutaneously administered to the sole of the left hind limb at 7 μL/body.
In significance test, multiple comparison by the Steel's test was carried out for comparison between the Vehicle group and Example 3 group, where the significance level was set to 5%, and calculation was separately performed for lower than 5% (p<0.05) and for lower than 1% (p<0.01). The commercially available statistical program SAS SYSTEM (SAS Institute Japan Ltd.) was used for the significance test.

acetaldehyde oxidation rate (no test compound = 100%) ([1]; test compound 10 μM): 188%
acetaldehyde oxidation rate (no test compound = 100%) ([1]; test compound 30 μM): 226%
Residual rate (%) of unchanged form [2]: 93%
Residual rate (%) of unchanged form [3]: 93%
SMILES: COc1ncc(CNC(=O)c2cc(-c3ncccc3CO)ccc2F)cc1F [Example 3, 2-Fluoro-N-((5-fluoro-6-methoxypyridin-3-yl)methyl)-5-(3-(hydroxymethyl)pyridin-2-yl)benzamide]
Pain-related total score ([4]; 2 mg/kg s.c. three times, 180 min after induction with carrageenan, p<0.01 vs Vehicle (9.4 ± 0.5)): 5.3 ± 0.3
Pain-related total score ([4]; 2 mg/kg s.c. three times, Pre (before induction)): 1.8 ± 0.5
Pain-related total score ([4]; 6 mg/kg s.c. three times, 180 min after induction with carrageenan, p<0.01 vs Vehicle (9.4 ± 0.5)): 4.6 ± 0.3
Pain-related total score ([4]; 6 mg/kg s.c. three times, Pre (before induction)): 1.8 ± 0.5
Pain-related total score ([4]; 20 mg/kg s.c. three times, 180 min after induction with carrageenan, p<0.01 vs Vehicle (9.4 ± 0.5)): 3.9 ± 0.3
Pain-related total score ([4]; 20 mg/kg s.c. three times, Pre (before induction)): 1.8 ± 0.4

Reference: patent US20250084036A1, “COMPOUND, ALDEHYDE DEHYDROGENASE 2 ACTIVATOR, PHARMACEUTICAL COMPOSITION, AND THERAPEUTIC AND/OR PROPHYLACTIC DRUG” (Alchemedicine, Inc., priority 2022, published 2025)
